How the values were obtained:
Format in all cases: ADME, organism-based
Plasma [1] = assay: Stability of the compound in healthy human spiked plasma assessed as initial Colistin methanesulfonate A at 80 mg, iv administered for 60 mins measured post 2 months of incubation at -20 degC by LC-MS/MS assay; details: in vivo, 1 h, pooled result: one value given for 9 cell lines, strains, targets or settings
Plasma [2] = assay: Stability of the compound in healthy human spiked plasma assessed as initial Colistin methanesulfonate A at 80 mg, iv administered for 60 mins measured under acidic pretreatment by LC-MS/MS assay; details: in vivo, 1 h
Plasma [3] = assay: Stability of the compound in healthy human spiked plasma assessed as initial Colistin methanesulfonate A at 80 mg, iv administered for 60 mins measured after 2 freeze-thaw cycles by LC-MS/MS assay; details: in vivo, 1 h
Plasma [4] = assay: Stability of the compound in healthy human spiked plasma assessed as initial Colistin methanesulfonate B at 80 mg, iv administered for 60 mins measured post 2 months of incubation at -20 degC by LC-MS/MS assay; details: in vivo, 1 h, pooled result: one value given for 9 cell lines, strains, targets or settings
Plasma [5] = assay: Stability of the compound in healthy human spiked plasma assessed as initial Colistin methanesulfonate B at 80 mg, iv administered for 60 mins measured under acidic pretreatment by LC-MS/MS assay; details: in vivo, 1 h
Plasma [6] = assay: Stability of the compound in healthy human spiked plasma assessed as initial Colistin methanesulfonate B at 80 mg, iv administered for 60 mins measured after 2 freeze-thaw cycles by LC-MS/MS assay; details: in vivo, 1 h
Plasma [7] = assay: Stability of the compound in healthy human spiked plasma assessed as Colistin methanesulfonate A at 80 mg, iv administered for 60 mins measured post 2 months of incubation at -20 degC by LC-MS/MS assay; details: in vivo, 1 h
Plasma [8] = assay: Stability of the compound in healthy human spiked plasma assessed as Colistin methanesulfonate A at 80 mg, iv administered for 60 mins measured under nonacidic pretreatment by LC-MS/MS assay; details: in vivo, 1 h
Plasma [9] = assay: Stability of the compound in healthy human spiked plasma assessed as Colistin methanesulfonate A at 80 mg, iv administered for 60 mins measured under acidic pretreatment by LC-MS/MS assay; details: in vivo, 1 h
Plasma [10] = assay: Stability of the compound in healthy human spiked plasma assessed as Colistin methanesulfonate A at 80 mg, iv administered for 60 mins measured after 2 freeze-thaw cycles by LC-MS/MS assay; details: in vivo, 1 h
Plasma [11] = assay: Stability of the compound in healthy human spiked plasma assessed as Colistin methanesulfonate A at 80 mg, iv administered for 60 mins measured after 1 hr in room temperature by LC-MS/MS assay; details: in vivo
Plasma [12] = assay: Stability of the compound in healthy human spiked plasma assessed as Colistin methanesulfonate A at 80 mg, iv administered for 60 mins measured after 4 hrs in room temperature by LC-MS/MS assay; details: in vivo
Plasma [13] = assay: Stability of the compound in healthy human spiked plasma assessed as Colistin methanesulfonate A at 80 mg, iv administered for 60 mins measured after 5 hrs at 4 degC by LC-MS/MS assay; details: in vivo
[14] = Stability of the compound in healthy human spiked urine assessed as Colistin methanesulfonate A at 80 mg, iv administered for 60 mins measured after 2 freeze-thaw cycles by LC-MS/MS assay; details: in vivo, 1 h
[15] = Stability of the compound in healthy human spiked urine assessed as Colistin methanesulfonate A at 80 mg, iv administered for 60 mins measured at room temperature by LC-MS/MS assay; details: in vivo, 1 h
[16] = Stability of the compound in healthy human spiked urine assessed as Colistin methanesulfonate A at 80 mg, iv administered for 60 mins measured after 1 hr in room temperature by LC-MS/MS assay; details: in vivo
[17] = Stability of the compound in healthy human spiked urine assessed as Colistin methanesulfonate A at 80 mg, iv administered for 60 mins measured after 4 hrs in room temperature by LC-MS/MS assay; details: in vivo
Plasma [18] = assay: Stability of the compound in healthy human spiked plasma assessed as Colistin methanesulfonate B at 80 mg, iv administered for 60 mins measured post 2 months of incubation at -20 degC by LC-MS/MS assay; details: in vivo, 1 h
Plasma [19] = assay: Stability of the compound in healthy human spiked plasma assessed as Colistin methanesulfonate B at 80 mg, iv administered for 60 mins measured under nonacidic pretreatment by LC-MS/MS assay; details: in vivo, 1 h
Plasma [20] = assay: Stability of the compound in healthy human spiked plasma assessed as Colistin methanesulfonate B at 80 mg, iv administered for 60 mins measured under acidic pretreatment by LC-MS/MS assay; details: in vivo, 1 h
Plasma [21] = assay: Stability of the compound in healthy human spiked plasma assessed as Colistin methanesulfonate B at 80 mg, iv administered for 60 mins measured after 2 freeze-thaw cycles by LC-MS/MS assay; details: in vivo, 1 h
Plasma [22] = assay: Stability of the compound in healthy human spiked plasma assessed as Colistin methanesulfonate B at 80 mg, iv administered for 60 mins measured after 1 hr in room temperature by LC-MS/MS assay; details: in vivo
Plasma [23] = assay: Stability of the compound in healthy human spiked plasma assessed as Colistin methanesulfonate B at 80 mg, iv administered for 60 mins measured after 4 hrs in room temperature by LC-MS/MS assay; details: in vivo
Plasma [24] = assay: Stability of the compound in healthy human spiked plasma assessed as Colistin methanesulfonate B at 80 mg, iv administered for 60 mins measured after 5 hrs at 4 degC by LC-MS/MS assay; details: in vivo
[25] = Stability of the compound in healthy human spiked urine assessed as Colistin methanesulfonate B at 80 mg, iv administered for 60 mins measured after 2 freeze-thaw cycles by LC-MS/MS assay; details: in vivo, 1 h
[26] = Stability of the compound in healthy human spiked urine assessed as Colistin methanesulfonate B at 80 mg, iv administered for 60 mins measured at room temperature by LC-MS/MS assay; details: in vivo, 1 h
[27] = Stability of the compound in healthy human spiked urine assessed as Colistin methanesulfonate B at 80 mg, iv administered for 60 mins measured after 1 hr in room temperature by LC-MS/MS assay; details: in vivo
[28] = Stability of the compound in healthy human spiked urine assessed as Colistin methanesulfonate B at 80 mg, iv administered for 60 mins measured after 4 hrs in room temperature by LC-MS/MS assay; details: in vivo
Plasma [29] = assay: Stability of the compound in healthy human spiked plasma assessed as Colistin methanesulfonate A degradation at 80 mg, iv administered for 60 mins measured post 2 months of incubation at -20 degC by LC-MS/MS assay; details: in vivo, 1 h
Plasma [30] = assay: Stability of the compound in healthy human spiked plasma assessed as Colistin methanesulfonate A degradation at 80 mg, iv administered for 60 mins measured under nonacidic pretreatment by LC-MS/MS assay; details: in vivo, 1 h
Plasma [31] = assay: Stability of the compound in healthy human spiked plasma assessed as Colistin methanesulfonate A degradation at 80 mg, iv administered for 60 mins measured under acidic pretreatment by LC-MS/MS assay; details: in vivo, 1 h
Plasma [32] = assay: Stability of the compound in healthy human spiked plasma assessed as Colistin methanesulfonate A degradation at 80 mg, iv administered for 60 mins measured after 2 freeze-thaw cycles by LC-MS/MS assay; details: in vivo, 1 h
Plasma [33] = assay: Stability of the compound in healthy human spiked plasma assessed as Colistin methanesulfonate A degradation at 80 mg, iv administered for 60 mins measured after 1 hr in room temperature by LC-MS/MS assay; details: in vivo
Plasma [34] = assay: Stability of the compound in healthy human spiked plasma assessed as Colistin methanesulfonate A degradation at 80 mg, iv administered for 60 mins measured after 4 hrs in room temperature by LC-MS/MS assay; details: in vivo
Plasma [35] = assay: Stability of the compound in healthy human spiked plasma assessed as Colistin methanesulfonate A degradation at 80 mg, iv administered for 60 mins measured after 5 hrs at 4 degC by LC-MS/MS assay; details: in vivo
[36] = Stability of the compound in healthy human spiked urine assessed as Colistin methanesulfonate A degradation at 80 mg, iv administered for 60 mins measured after 2 freeze-thaw cycles by LC-MS/MS assay; details: in vivo, 1 h
[37] = Stability of the compound in healthy human spiked urine assessed as Colistin methanesulfonate A degradation at 80 mg, iv administered for 60 mins measured at room temperature by LC-MS/MS assay; details: in vivo, 1 h
[38] = Stability of the compound in healthy human spiked urine assessed as Colistin methanesulfonate A degradation at 80 mg, iv administered for 60 mins measured after 1 hr in room temperature by LC-MS/MS assay; details: in vivo
[39] = Stability of the compound in healthy human spiked urine assessed as Colistin methanesulfonate A degradation at 80 mg, iv administered for 60 mins measured after 4 hrs in room temperature by LC-MS/MS assay; details: in vivo
Plasma [40] = assay: Stability of the compound in healthy human spiked plasma assessed as Colistin methanesulfonate B degradation at 80 mg, iv administered for 60 mins measured post 2 months of incubation at -20 degC by LC-MS/MS assay; details: in vivo, 1 h
Plasma [41] = assay: Stability of the compound in healthy human spiked plasma assessed as Colistin methanesulfonate B degradation at 80 mg, iv administered for 60 mins measured under nonacidic pretreatment by LC-MS/MS assay; details: in vivo, 1 h
Plasma [42] = assay: Stability of the compound in healthy human spiked plasma assessed as Colistin methanesulfonate B degradation at 80 mg, iv administered for 60 mins measured under acidic pretreatment by LC-MS/MS assay; details: in vivo, 1 h
Plasma [43] = assay: Stability of the compound in healthy human spiked plasma assessed as Colistin methanesulfonate B degradation at 80 mg, iv administered for 60 mins measured after 2 freeze-thaw cycles by LC-MS/MS assay; details: in vivo, 1 h
Plasma [44] = assay: Stability of the compound in healthy human spiked plasma assessed as Colistin methanesulfonate B degradation at 80 mg, iv administered for 60 mins measured after 1 hr in room temperature by LC-MS/MS assay; details: in vivo
Plasma [45] = assay: Stability of the compound in healthy human spiked plasma assessed as Colistin methanesulfonate B degradation at 80 mg, iv administered for 60 mins measured after 4 hrs in room temperature by LC-MS/MS assay; details: in vivo
Plasma [46] = assay: Stability of the compound in healthy human spiked plasma assessed as Colistin methanesulfonate B degradation at 80 mg, iv administered for 60 mins measured after 5 hrs at 4 degC by LC-MS/MS assay; details: in vivo
[47] = Stability of the compound in healthy human spiked urine assessed as Colistin methanesulfonate B degradation at 80 mg, iv administered for 60 mins measured after 2 freeze-thaw cycles by LC-MS/MS assay; details: in vivo, 1 h
[48] = Stability of the compound in healthy human spiked urine assessed as Colistin methanesulfonate B degradation at 80 mg, iv administered for 60 mins measured at room temperature by LC-MS/MS assay; details: in vivo, 1 h
[49] = Stability of the compound in healthy human spiked urine assessed as Colistin methanesulfonate B degradation at 80 mg, iv administered for 60 mins measured after 1 hr in room temperature by LC-MS/MS assay; details: in vivo
[50] = Stability of the compound in healthy human spiked urine assessed as Colistin methanesulfonate B degradation at 80 mg, iv administered for 60 mins measured after 4 hrs in room temperature by LC-MS/MS assay; details: in vivo

For COLISTIMETHATE SODIUM, the Stability (Plasma [1]) was 3.746 µg/mL, the Stability (Plasma [2]) was 7.492 µg/mL and the Stability (Plasma [3]) was 0.937 µg/mL. It also gave a Stability (Plasma [4]) of 1.254 µg/mL, a Stability (Plasma [5]) of 2.508 µg/mL and a Stability (Plasma [6]) of 0.313 µg/mL. For the same sequence, the Stability (Plasma [7]) was “Unstable”, the Stability (Plasma [8]) was “Unstable” and the Stability (Plasma [9]) was 1.626 µg/mL. The Stability (Plasma [10]) was “Unstable”, the Stability (Plasma [11]) was 0.123 µg/mL and the Stability (Plasma [12]) was 0.519 µg/mL. The Stability (Plasma [13]) was “Unstable”, the Stability [14] was 0.746 µg/mL and the Stability [15] was 0.614 µg/mL. For the same sequence, the Stability [16] was 0.835 µg/mL, the Stability [17] was 1.056 µg/mL and the Stability (Plasma [18]) was “Unstable”. The Stability (Plasma [19]) was “Unstable”, the Stability (Plasma [20]) was 0.485 µg/mL and the Stability (Plasma [21]) was “Unstable”. For the same sequence, the Stability (Plasma [22]) was 0.029 µg/mL, the Stability (Plasma [23]) was 0.175 µg/mL and the Stability (Plasma [24]) was “Unstable”. The Stability [25] was 0.18 µg/mL, the Stability [26] was 0.143 µg/mL and the Stability [27] was 0.211 µg/mL. For the same sequence, the Stability [28] was 0.268 µg/mL, the Stability (Plasma [29]) was “Stable” and the Stability (Plasma [30]) was “Stable”. The Stability (Plasma [31]) was 32.5%, the Stability (Plasma [32]) was “Stable” and the Stability (Plasma [33]) was 3.3%. The Stability (Plasma [34]) was 13.9%, the Stability (Plasma [35]) was “Stable” and the Stability [36] was 19.9%. The Stability [37] was 16.4%, the Stability [38] was 22.3% and the Stability [39] was 29.2%. The Stability (Plasma [40]) was “Stable”, the Stability (Plasma [41]) was “Stable” and the Stability (Plasma [42]) was 29.1%. For the same sequence, the Stability (Plasma [43]) was “Stable”, the Stability (Plasma [44]) was 2.3% and the Stability (Plasma [45]) was 14%. The Stability (Plasma [46]) was “Stable”, the Stability [47] was 14.4% and the Stability [48] was 11.6%. For the same sequence, the Stability [49] was 16.8% and the Stability [50] was 21.4%.

Source: ChEMBL document CHEMBL1255442, “Assay of colistin and colistin methanesulfonate in plasma and urine by liquid chromatography-tandem mass spectrometry” (Antimicrob Agents Chemother, 2010)
